Like-named read-outs stand apart in the source and are kept apart here.
Target: recombinant human CL receptor/RAMP1 (Homo sapiens (Human), UniProt O60894+Q16602)
Assay: Human CGRP receptor binding (recombinant receptor binding assay, 125I-hCGRP)
Protocol: RECOMBINANT RECEPTOR: Human CL receptor (Genbank accession number L76380) was subcloned into the expression vector pIREShyg2 (BD Biosciences Clontech) as a 5′NheI and 3′ PmeI fragment. Human RAMP1 (Genbank accession number AJ001014) was subcloned into the expression vector pIRESpuro2 (BD Biosciences Clontech) as a 5′NheI and 3′NotI fragment. HEK 293 cells (human embryonic kidney cells; ATCC #CRL-1573) were cultured in DMEM with 4.5 g/L glucose, 1 mM sodium pyruvate and 2 mM glutamine supplemented with 10% fetal bovine serum (FBS), 100 units/mL penicillin and 100 μg/mL streptomycin, and maintained at 37° C. and 95% humidity. Cells were subcultured by treatment with 0.25% trypsin with 0.1% EDTA in HBSS. Stable cell line generation was accomplished by co-transfecting 10 μg of DNA with 30 μg Lipofectamine 2000 (Invitrogen) in 75 cm^2 flasks. CL receptor and RAMP1 expression constructs were co-transfected in equal amounts. Twenty-four hours after transfection the cells were diluted and selective medium (growth medium+300 μg/mL hygromycin and 1 μg/mL puromycin) was added the following day. A clonal cell line was generated by single cell deposition utilizing a FACS Vantage SE (Becton Dickinson). Growth medium was adjusted to 150 μg/mL hygromycin and 0.5 μg/mL puromycin for cell propagation.
The cell suspension was disrupted with a laboratory homogenizer and centrifuged at 48,000 g to isolate membranes. The pellets were resuspended in harvest buffer plus 250 mM sucrose and stored at −70° C. For binding assays, 20 μg of membranes were incubated in 1 ml binding buffer (10 mM HEPES, pH 7.4, 5 mM MgCl2, and 0.2% BSA) for 3 hours at room temperature containing 10 pM ^125I-hCGRP (GE Healthcare) and antagonist. The assay was terminated by filtration through 96-well GFB glass fiber filter plates (PerkinElmer) that had been blocked with 0.05% polyethyleneimine. The filters were washed 3 times with ice-cold assay buffer (10 mM HEPES, pH 7.4 and 5 mM MgCl2). Scintillation fluid was added and the plates were counted on a Topcount (Packard). Non-specific binding was determined and the data analysis was carried out with the apparent dissociation constant (Ki) determined by using a non-linear least squares fitting the bound CPM data to the equation below: […]

[1] = read-out: Human CGRP receptor binding Ki

recombinant human CL receptor/RAMP1, sequence (Q16602 23-461): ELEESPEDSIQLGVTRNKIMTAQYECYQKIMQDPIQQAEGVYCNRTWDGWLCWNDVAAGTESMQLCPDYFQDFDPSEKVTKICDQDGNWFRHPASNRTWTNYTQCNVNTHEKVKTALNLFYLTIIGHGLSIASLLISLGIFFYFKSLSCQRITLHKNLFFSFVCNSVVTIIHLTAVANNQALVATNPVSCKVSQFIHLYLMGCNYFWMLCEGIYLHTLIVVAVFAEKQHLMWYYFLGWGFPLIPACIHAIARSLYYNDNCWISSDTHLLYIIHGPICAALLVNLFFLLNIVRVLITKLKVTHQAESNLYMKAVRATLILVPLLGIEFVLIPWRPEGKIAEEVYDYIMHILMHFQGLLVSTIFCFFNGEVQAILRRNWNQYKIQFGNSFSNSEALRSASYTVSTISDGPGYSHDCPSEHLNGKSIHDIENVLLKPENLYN
recombinant human CL receptor/RAMP1, sequence (O60894 27-148): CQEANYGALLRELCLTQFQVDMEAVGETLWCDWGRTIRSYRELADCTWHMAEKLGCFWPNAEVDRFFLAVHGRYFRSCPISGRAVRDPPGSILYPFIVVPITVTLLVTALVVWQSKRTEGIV

Compound | Ki [1] [nM] | Ki (read-out: Ki) [nM]
CC(C)(C)C(=O)N(CC#Cc1ccc2c(c1)CC1(C2)C(=O)Nc2ncccc21)Cc1ccccc1 (centres unmarked) [Example 1, N-Benzyl-2,2-dimethyl-N-[3-(2′-oxo-1,1′,2′,3-tetrahydrospiro[indene-2,3′-pyrrolo[2,3-b]pyridin]-5-yl)prop-2-yn-1-yl]propanamide] | 20 | 
CC(C)(C)C(=O)N(CCCc1ccc2c(c1)CC1(C2)C(=O)Nc2ncccc21)Cc1ccccc1 (centres unmarked) [Example 2, N-benzyl-2,2-dimethyl-N-[3-(2′-oxo-1,1′,2′,3-tetrahydrospiro[indene-2,3′-pyrrolo[2,3-b]pyridin]-5-yl)propyl]propanamide] | 45 | 
CC(C)(CF)C(=O)N(C/C=C/c1cnc2c(c1)C[C@@]1(C2)C(=O)Nc2ncccc21)[C@@H]1CCc2ccccc21 [Example 3, N-[(1R)-2,3-dihydro-1H-inden-1-yl]-3-fluoro-2,2-dimethyl-N-{(2E)-3-[(6S)-2′-oxo-1′,2′,5,7-tetrahydrospiro[cyclopenta[b]pyridine-6,3′-pyrrolo[2,3-b]pyridin]-3-yl]prop-2-en-1-yl}propanamide] | 0.06 | 
C[C@H](c1cc(F)cc(F)c1)N(C/C=C/c1cnc2c(c1)C[C@@]1(C2)C(=O)Nc2ncccc21)C(=O)C(C)(C)CCl [Example 6] |  | 0.065
C[C@H](c1cc(F)cc(F)c1)N(C/C=C/c1cnc2c(c1)C[C@@]1(C2)C(=O)Nc2ncccc21)C(=O)C(C)(C)CF [Example 7] |  | 0.041
C[C@H](c1cc(F)cc(F)c1)N(C/C=C/c1ccc2c(c1)C[C@@]1(C2)C(=O)NC(=O)N1C)C(=O)C(C)(C)C [Example 8] |  | 0.43
C[C@H](c1cc(F)cc(F)c1)N(C/C=C/c1cnc2c(c1)C[C@@]1(C2)C(=O)Nc2ncccc21)C(=O)C1(C(F)(F)F)CC1 [Example 11] |  | 0.05
Cc1ccc([C@@H](C)N(C/C=C/c2cnc3c(c2)C[C@@]2(C3)C(=O)Nc3ncccc32)C(=O)C(C)(C)C)cc1F [Example 13] |  | 0.13
